“And” between values parts separate entries of the source, which are not always exact repeats. Equal entries are not always repeated.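 Protocol summary: plate cells (96-well), add compound at 5 concentrations, incubate 48 h, interpolate endpoints linearly. Here, GI50 denotes the concentration required for 50% inhibition of growth.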 The source made the active and inactive calls. Cut-off read from the data, not from the text of the source: active = GI50 up to about 1.1 µM and inactive = higher.

The values that follow come from ChEMBL document CHEMBL1201862, “PubChem BioAssay data set” (2004).

Among the test systems are DLD-1; DMS-114; DMS-273; HOP-18; KM-20L2; M19-MEL; RXF 631; SNB-78; XF498.
Common to all, as to assay: NCI tumour cell line growth inhibition, 48 h

For `O=C(/C=C/c1ccc(Cl)c(Cl)c1)c1ccc2ccccc2c1`, the GI50 in the test with DLD-1, in the test on DMS-114, in the test with DMS-273, in the test with HOP-18, in the test on KM-20L2 and with M19-MEL was > 100 µM (inactive) throughout. In addition, the GI50 in the test on RXF 631 and in the test with SNB-78 was > 100 µM (inactive) each time.

As for `CN(C)C(=S)SN(C)C(=O)Nc1ccccc1`, the GI50 in the test on DLD-1 was 31.1 µM (inactive); with DMS-114 it was 2.4 µM (inactive); with DMS-273, 18.2 µM (inactive); with KM-20L2, > 49.2 µM (inactive); in the test with M19-MEL it was 2.21 µM (inactive); in the test with RXF 631 it was > 51.9 µM (inactive). The GI50 with SNB-78 was 39.9 µM (inactive).

Consider `Cc1cc(C)c([O-])c(-[n+]2c(-c3ccccc3)cc(-c3ccccc3)cc2-c2ccccc2)c1`, for which the GI50 is 5.19 µM (inactive) in the test on DLD-1; 3.05 µM (inactive) in the test on DMS-114; 3.24 µM (inactive) with DMS-273; 5.31 µM (inactive) in the test on HOP-18; 2.65 µM (inactive) in the test on KM-20L2; 3.88 µM (inactive) in the test on M19-MEL. Besides, the GI50 in the test on RXF 631 was 10.2 µM (inactive); with SNB-78, 6.24 µM (inactive); in the test on XF498, 2.15 µM (inactive).

For `COc1ccc2nc(NC(=O)C(=O)CC(=O)c3ccc([N+](=O)[O-])cc3)sc2c1`, the GI50 with DLD-1 is > 100 µM (inactive); in the test on DMS-114, 90.6 µM (inactive); in the test on DMS-273, > 100 µM (inactive); in the test on KM-20L2, > 100 µM (inactive); with M19-MEL, > 100 µM (inactive); with RXF 631, > 100 µM (inactive). Further, the GI50 in the test on XF498 was > 100 µM (inactive).

For the molecule `O=c1oc2ccccc2[n+]([O-])c1-c1ccccc1`, the GI50 in the test with DLD-1, in the test on DMS-114, in the test on DMS-273, in the test with HOP-18, with KM-20L2 and with M19-MEL was > 100 µM (inactive) throughout. In addition, the GI50 in the test with RXF 631, in the test with SNB-78 and in the test with XF498 was > 100 µM (inactive) each time.

In the case of `COc1cc2c(cc1C)[n+]([O-])c(C)c(C(=O)C/C(=N/NC(=O)C[N+](C)(C)C)C(=O)Nc1cccc(Cl)c1C)[n+]2[O-]`, the GI50 with DLD-1, in the test on DMS-114, in the test with DMS-273, in the test with HOP-18, in the test on KM-20L2 and in the test on RXF 631 was > 100 µM (inactive) throughout. Moreover, the GI50 in the test with SNB-78 and in the test on XF498 was > 100 µM (inactive) in each case.

`CCOC(=O)C(C(O)c1ccc([N+](=O)[O-])cc1)P(=O)(OCC)OCC` (centres undefined): the GI50 is > 100 µM (inactive) with DLD-1; > 100 µM (inactive) in the test on DMS-273; > 100 µM (inactive) with HOP-18; > 100 µM (inactive) with KM-20L2; 77.6 µM (inactive) with M19-MEL; > 100 µM (inactive) in the test with RXF 631. The GI50 in the test with XF498 is > 100 µM (inactive).

`Cc1cc(C)c(C(=O)C(C)C(c2ccccc2)c2ccc(Cl)cc2)c(C)c1` (centres undefined): the GI50 with DLD-1 was > 100 µM (inactive); in the test on DMS-114, > 100 µM (inactive) and 76.7 µM (inactive); in the test on HOP-18 it was > 100 µM (inactive); in the test with M19-MEL, 43.9 µM (inactive) and 33.3 µM (inactive); in the test with RXF 631 it was > 100 µM (inactive) and 95.1 µM (inactive); with XF498, 61.2 µM (inactive) and 33.3 µM (inactive).

For `CN(CCN1C(=O)c2cc([N+](=O)[O-])cc3cc([N+](=O)[O-])cc(c23)C1=O)CCN1C(=O)c2cc([N+](=O)[O-])cc3cc([N+](=O)[O-])cc(c23)C1=O`, the GI50 is 0.448 µM (active) with DLD-1; 0.605 µM (active) in the test on DMS-114; 0.391 µM (active) in the test with DMS-273; 10.6 µM (inactive) in the test with HOP-18; 1.1 µM (active) in the test with KM-20L2; 0.369 µM (active) in the test with M19-MEL. Further, the GI50 in the test on SNB-78 was 0.255 µM (active); in the test on XF498, 0.211 µM (active).

In the case of `CN(C)C=C1C(=O)N(C)C(=O)N(C)C1=O`, the GI50 in the test with DLD-1, in the test on DMS-114, in the test with DMS-273, in the test on HOP-18, with KM-20L2 and in the test with M19-MEL was > 100 µM (inactive) each time. Besides, the GI50 in the test with SNB-78 and in the test with XF498 was > 100 µM (inactive) each time.

Take `CC[C@@]1(O)C(=O)OCc2c1cc1n(c2=O)Cc2cc3ccccc3nc2-1` [CAMPTOTHECIN]: the GI50 with DLD-1 is 0.243 µM (active); in the test on DMS-114, 0.0206 µM (active); with DMS-273 it was < 0.01 µM (active); with HOP-18, 0.122 µM (active); with KM-20L2 it was 0.0776 µM (active); with M19-MEL it was 0.048 µM (active). The GI50 with SNB-78 is 0.333 µM (active); with XF498, 0.0483 µM (active).

In the case of `CCOC(=O)c1ccc(/N=C/c2ccc(N(CCC#N)S(=O)(=O)c3ccccc3)cc2C)cc1`, the GI50 with DLD-1 is 25.1 µM (inactive); in the test with DMS-114 it was 36 µM (inactive); with DMS-273 it was 65.3 µM (inactive); in the test with KM-20L2 it was 16.4 µM (inactive); in the test with M19-MEL, 36.6 µM (inactive); in the test on RXF 631, > 100 µM (inactive). In addition, the GI50 in the test with SNB-78 is 33.2 µM (inactive); with XF498 it was > 100 µM (inactive).

Consider `O=C(CC(=O)n1nc(-c2ccccc2)c(/N=N/c2ccc([N+](=O)[O-])cc2)c1-c1ccccc1)Nc1ccc(Cl)cc1`, for which the GI50 in the test with DLD-1 is 22 µM (inactive); in the test on DMS-114, 5.92 µM (inactive); in the test with DMS-273 it was 19.9 µM (inactive); in the test with HOP-18, 26.4 µM (inactive); with KM-20L2 it was 3.25 µM (inactive); with M19-MEL it was 35.6 µM (inactive). Besides, the results for the GI50 in the test with RXF 631, with SNB-78 and in the test on XF498 were 55.6 µM (inactive), 88.5 µM (inactive) and 26.2 µM (inactive), respectively.

For the molecule `Cc1c2cc[n+](C)cc2c(C)c2c1[nH]c1ccc(O)c(OCC(F)(F)F)c12`, the GI50 with DLD-1 is 2.34 µM (inactive); in the test with DMS-114, 0.938 µM (active); in the test on DMS-273, 1.58 µM (inactive); with KM-20L2, 7.13 µM (inactive); with M19-MEL it was 2.42 µM (inactive); in the test with RXF 631, 2.78 µM (inactive). For the same molecule, the GI50 in the test with SNB-78 was 1.16 µM (inactive); in the test on XF498, 1.2 µM (inactive).

With `O=C(Cc1ccc(F)cc1)NC1=C(Cl)C(=O)c2ccccc2C1=O`, the GI50 with DLD-1 is 2.18 µM (inactive); with DMS-114, 0.514 µM (active); with DMS-273, 3.63 µM (inactive); in the test with KM-20L2, 17.7 µM (inactive); in the test on M19-MEL, 3.74 µM (inactive); in the test with RXF 631 it was 7.36 µM (inactive). Also, the GI50 was 7.03 µM (inactive) with SNB-78 and 1.76 µM (inactive) in the test with XF498.

For `NNC(=O)CC(=O)Nc1ccccc1F`, the GI50 with DLD-1, with DMS-114, with DMS-273, with HOP-18, in the test on KM-20L2 and in the test on M19-MEL was > 100 µM (inactive) in each case. Further, the GI50 with RXF 631 and with SNB-78 was > 100 µM (inactive) each time.

For the molecule `CC(C)N1CC2CC(CN(C(=O)c3ccc(Cl)cc3)C2)C1`, the GI50 in the test with DMS-114, in the test with DMS-273, with HOP-18, in the test on KM-20L2, in the test with M19-MEL and in the test on RXF 631 was > 100 µM (inactive) in each case. In addition, the GI50 with XF498 is > 100 µM (inactive).

With `C[N+](C)(C)CC(=O)N/N=C(/C(=O)Nc1ccc(Br)cc1)C1C(=O)NC(=O)NC1=O`, the GI50 in the test with DLD-1, in the test with DMS-114, in the test with DMS-273, in the test on HOP-18, in the test with KM-20L2 and in the test on M19-MEL was > 100 µM (inactive) each time. Further, the GI50 in the test on RXF 631 and with SNB-78 was > 100 µM (inactive) in each case.

Regarding `O=C1/C(=C/c2ccc(Cl)cc2)CCC1CNc1ccc(Cl)cc1` (centres undefined), the GI50 in the test with DLD-1 is 1.68 µM (inactive); in the test with DMS-114 it was 3.94 µM (inactive); in the test on DMS-273, 1.73 µM (inactive); in the test with HOP-18, 33.9 µM (inactive); with KM-20L2, 1.46 µM (inactive); in the test with M19-MEL, 3.97 µM (inactive). Besides, the values for the GI50 in the test on SNB-78 and in the test on XF498 were 23.7 µM (inactive) and 12.8 µM (inactive), respectively.
